Measurements published in the NIST ThermoML archive (doi:10.1016/j.jct.2016.07.005).
Numbers after ± are expanded uncertainties.

Columns and labels:
[1] = 100 kPa, Liquid; for viscosity: Concentric cylinders viscometry; for mass density: Vibrating tube method
[2] = refractive index (Na D-line) (dimensionless); conditions: 100 kPa, Liquid, Standard Abbe refractometry
[3] = refractive index (Na D-line) (dimensionless); xn = mol fraction of the nth substance listed; conditions: 100 kPa, Liquid, Standard Abbe refractometry, x2 = 0
[4] = xn = mol fraction of the nth substance listed; conditions: 100 kPa, Liquid, x2 = 0; for viscosity: Concentric cylinders viscometry; for mass density: Vibrating tube method

CC(O)CO (centres undefined) [1,2-propanediol]
Conditions	mass density, [1] [kg/m3]	refractive index, [2]	viscosity, [1] [mPa·s]
293.15 K	1036.3 ± 1	1.43279 ± 0.00036	59.56 ± 1.2
298.15 K	1032.62 ± 1	1.43111 ± 0.00036	44.14 ± 0.9
303.15 K	1028.91 ± 1	1.42941 ± 0.00036	33.25 ± 0.68
308.15 K	1025.16 ± 1	1.42773 ± 0.00036	25.5 ± 0.52
313.15 K	1021.39 ± 1	1.42601 ± 0.00036	19.78 ± 0.4
318.15 K	1017.57 ± 1	1.42429 ± 0.00036	15.76 ± 0.32
323.15 K	1013.72 ± 1	1.42257 ± 0.00036	12.75 ± 0.26

CC(O)CO (centres undefined) [1,2-propanediol] + CN1CCC[C@H]1c1cccnc1
Conditions	mass density, [4] [kg/m3]	refractive index, [3]	viscosity, [4] [mPa·s]
293.15 K	1036.3 ± 1	1.43279 ± 0.00036	59.56 ± 1.2
298.15 K	1032.62 ± 1	1.43111 ± 0.00036	44.14 ± 0.9
303.15 K	1028.91 ± 1	1.42941 ± 0.00036	33.25 ± 0.68
308.15 K	1025.16 ± 1	1.42773 ± 0.00036	25.5 ± 0.52
313.15 K	1021.39 ± 1	1.42601 ± 0.00036	19.78 ± 0.4
318.15 K	1017.57 ± 1	1.42429 ± 0.00036	15.76 ± 0.32
323.15 K	1013.72 ± 1	1.42257 ± 0.00036	12.75 ± 0.26

CN1CCC[C@H]1c1cccnc1 [(-)-3-(N-methylpyrrolidino)pyridine]
Conditions	mass density, [1] [kg/m3]	refractive index, [2]	viscosity, [1] [mPa·s]
293.15 K	1010.23 ± 1	1.52665 ± 0.0004	4.694 ± 0.098
298.15 K	1006.16 ± 1	1.52439 ± 0.0004	4.048 ± 0.085
303.15 K	1002.1 ± 1	1.52214 ± 0.0004	3.518 ± 0.074
308.15 K	998.055 ± 1	1.51988 ± 0.0004	3.088 ± 0.065
313.15 K	994.014 ± 1	1.5179 ± 0.0004	2.758 ± 0.058
318.15 K	989.984 ± 1	1.51592 ± 0.0004	2.411 ± 0.051
323.15 K	985.962 ± 1	1.51373 ± 0.0004	2.195 ± 0.046

CCCCO [butan-1-ol]
Conditions	mass density, [1] [kg/m3]	refractive index, [2]	viscosity, [1] [mPa·s]
293.15 K	809.819 ± 1	1.39922 ± 0.00036	2.914 ± 0.06
298.15 K	805.995 ± 1	1.39719 ± 0.00036	2.564 ± 0.053
303.15 K	802.148 ± 1	1.39517 ± 0.00036	2.258 ± 0.047
308.15 K	798.276 ± 1	1.39311 ± 0.00036	1.994 ± 0.041
313.15 K	794.372 ± 1	1.39102 ± 0.00036	1.777 ± 0.037
318.15 K	790.429 ± 1	1.38896 ± 0.00036	1.589 ± 0.033
323.15 K	786.444 ± 1	1.38688 ± 0.00036	1.372 ± 0.029

CCCCO [butan-1-ol] + CN1CCC[C@H]1c1cccnc1
Conditions	mass density, [4] [kg/m3]	refractive index, [3]	viscosity, [4] [mPa·s]
293.15 K	809.819 ± 1	1.39922 ± 0.00036	2.914 ± 0.06
298.15 K	805.995 ± 1	1.39719 ± 0.00036	2.564 ± 0.053
303.15 K	802.148 ± 1	1.39517 ± 0.00036	2.258 ± 0.047
308.15 K	798.276 ± 1	1.39311 ± 0.00036	1.994 ± 0.041
313.15 K	794.372 ± 1	1.39102 ± 0.00036	1.777 ± 0.037
318.15 K	790.429 ± 1	1.38896 ± 0.00036	1.589 ± 0.033
323.15 K	786.444 ± 1	1.38688 ± 0.00036	1.372 ± 0.029

CCC(C)O (centres undefined) [butan-2-ol]
Conditions	mass density, [1] [kg/m3]	refractive index, [2]	viscosity, [1] [mPa·s]
293.15 K	807.19 ± 1	1.39715 ± 0.00036	3.76 ± 0.077
298.15 K	803.049 ± 1	1.39497 ± 0.00036	3.093 ± 0.064
303.15 K	798.829 ± 1	1.39274 ± 0.00036	2.566 ± 0.053
308.15 K	794.525 ± 1	1.39045 ± 0.00036	2.149 ± 0.044
313.15 K	790.127 ± 1	1.38803 ± 0.00036	1.816 ± 0.038
318.15 K	785.636 ± 1	1.38571 ± 0.00036	1.548 ± 0.032
323.15 K	781.043 ± 1	1.38322 ± 0.00036	1.332 ± 0.028

CCC(C)O (centres undefined) [butan-2-ol] + CN1CCC[C@H]1c1cccnc1
Conditions	mass density, [4] [kg/m3]	refractive index, [3]	viscosity, [4] [mPa·s]
293.15 K	807.19 ± 1	1.39715 ± 0.00036	3.76 ± 0.077
298.15 K	803.049 ± 1	1.39497 ± 0.00036	3.093 ± 0.064
303.15 K	798.829 ± 1	1.39274 ± 0.00036	2.566 ± 0.053
308.15 K	794.525 ± 1	1.39045 ± 0.00036	2.149 ± 0.044
313.15 K	790.127 ± 1	1.38803 ± 0.00036	1.816 ± 0.038
318.15 K	785.636 ± 1	1.38571 ± 0.00036	1.548 ± 0.032
323.15 K	781.043 ± 1	1.38322 ± 0.00036	1.332 ± 0.028

OCCCO [propan-1,3-diol]
Conditions	mass density, [1] [kg/m3]	refractive index, [2]	viscosity, [1] [mPa·s]
293.15 K	1053.03 ± 1.3	1.43918 ± 0.00053	52.31 ± 1.2
298.15 K	1049.9 ± 1.3	1.43783 ± 0.00053	41.55 ± 0.94
303.15 K	1046.77 ± 1.3	1.43648 ± 0.00053	33.22 ± 0.75
308.15 K	1043.63 ± 1.3	1.43515 ± 0.00053	26.87 ± 0.61
313.15 K	1040.49 ± 1.3	1.43382 ± 0.00053	21.85 ± 0.49
318.15 K	1037.33 ± 1.3	1.4324 ± 0.00053	18.12 ± 0.41
323.15 K	1034.16 ± 1.3	1.43101 ± 0.00053	15.21 ± 0.34

OCCCO [propan-1,3-diol] + CN1CCC[C@H]1c1cccnc1
Conditions	mass density, [4] [kg/m3]	refractive index, [3]	viscosity, [4] [mPa·s]
293.15 K	1053.03 ± 1.3	1.43918 ± 0.00053	52.31 ± 1.2
298.15 K	1049.9 ± 1.3	1.43783 ± 0.00053	41.55 ± 0.94
303.15 K	1046.77 ± 1.3	1.43648 ± 0.00053	33.22 ± 0.75
308.15 K	1043.63 ± 1.3	1.43515 ± 0.00053	26.87 ± 0.61
313.15 K	1040.49 ± 1.3	1.43382 ± 0.00053	21.85 ± 0.49
318.15 K	1037.33 ± 1.3	1.4324 ± 0.00053	18.12 ± 0.41
323.15 K	1034.16 ± 1.3	1.43101 ± 0.00053	15.21 ± 0.34
